According to PMC8151276, “An Integrated Approach toward NanoBRET Tracers for Analysis of GPCR Ligand Engagement” (Molecules, 2021):

How the values were obtained:
Format in all cases: binding
RXFP2 = target: T1, RXFP2 (Homo sapiens, UniProt Q8WXD0); assay: NanoBRET screen HiBiT-RXFP2 in HEK293
T1 construct: purchased Promega (in-house HiBiT-GPCR construct library, NanoBRET)
Protocol: (§1) Each tracer candidate was screened across the entire library of HiBiT-GPCR constructs using NanoBRET as the detection modality. As depicted in Figure 4A, the specificity of interactions was evaluated through decrease in BRET due to competitive displacement of a bound tracer by excess parental compound. Each tracer was analyzed for binding to each HiBiT-GPCR fusion in the absence and in the presence of competing parental compound. Briefly, HEK293 cells were transfected with HiBiT-GPCR constructs diluted into promoterless DNA to reduce expression and maximize translocation to the cell surface. Each tracer candidate was then screened at concentrations of 1 μM and 0.1 μM across cells expressing these fusions. Cells were treated for 1.5 h with tracer either alone or in the presence of 20 μM competing parental compound (i.e., control). BRET was measured upon addition of purified LgBiT and subsequent complementation with HiBiT genetically fused to a GPCR. The specificity of interactions was assessed through a decrease in BRET signal due to competitive displacement of the bound tracer. To further gauge the robustness of these interactions, the fold response over the control (i.e., BRETtracer/BRETcontrol) was calculated. We chose a 1.5-fold response, which translates to ≥7-fold signal over noise as the minimal threshold required to score an interaction as positive. […]. Below we highlight the screening results obtained for our exemplary fluorescent tracers based on Clozapine, Amitriptyline and AZD1283.
(§2) HiBiT-GPCR DNA constructs were diluted in 10 mM Tris pH 8 to a final concentration of 0.01 μg/μL, arrayed in 96-well plates and stored at −20 °C. For transfection, HEK293 cells were suspended in Opti-MEM (without phenol red) supplemented with 2% fetal bovine serum (Seradigm) and 100 units/mL penicillin–streptomycin (Gibco) at a final concentration of 220,000 cells/mL and dispensed into white 96-well plates at 90 μL/well. Subsequent transfections and screens were carried using an Agilent Bravo Automated Liquid Handling Platform. First, the 96-well HiBiT DNA arrays were diluted 25-fold in Opti-MEM (without serum or phenol red) to a final concentration of 0.0004 μg/μL and 20 μL of the diluted DNAs were transferred into new 96-well plates. Next, promoterless carrier DNA (1 μg/μL) was diluted 25-fold (0.04 μg/μL) and then dispensed into the diluted arrays at 20 μL/well. Following brief mixing, Viafect transfection reagent (Promega) diluted 16-fold into Opti-MEM was dispensed into the plates at 40 μL/well. After mixing by pipetting, plates were incubated for 10 min on the pipetting station deck. The DNA-transfection reagent complexes were then added to plates containing cells. To facilitate the screen, 10 μL of DNA-transfection reagent complexes were added in duplicates to the top 4 and bottom 4 rows, resulting in two identical 48-well arrays per plate. Plates with transfected cells were incubated for 18–20 h at 37 °C/5% CO2. A screen of each tracer across the entire library using two different concentrations requires duplicate plates of transfected cells. Depending on the number of tracers being screened, transfections can be scaled up using the same ratios. The next day, for each tracer, four 20× screening solutions in tracer dilution buffer (Promega) were prepared: two duplicates at final concentration of 20 μM and two duplicates at a final concentration of 2 μM. A competing unmodified compound was added to one of each duplicate at a final concentration of 400 μM. The four resulting solutions were diluted 4-fold in Opti-MEM without serum or phenol red to generate 5× solutions (5 µM and 0.5 µM tracer +/− 100 μM competing compound). To screen the library, a BioTek MultiFlo FX liquid dispenser was used to dispense 22.5 µL of tracer solution to the top 4 rows and 22.5 µL tracer + competing compound solution to the 4 bottom rows. Plates were briefly mixed on an orbital shaker and incubated for 1.5 h at room temperature. […]

PTAFR = target: T2, PTAFR (Homo sapiens, UniProt P25105); assay: NanoBRET screen HiBiT-PTAFR in HEK293
T2 construct: purchased Promega (in-house HiBiT-GPCR construct library, NanoBRET)
Protocol: as §1, §2

NPBWR2 = target: T3, NPBWR2 (Homo sapiens, UniProt P48146); assay: NanoBRET screen HiBiT-NPBWR2 in HEK293
T3 construct: purchased Promega (in-house HiBiT-GPCR construct library, NanoBRET)
Protocol: as §1, §2

CXCR2 = target: T4, CXCR2 (Homo sapiens, UniProt P25025); assay: NanoBRET screen HiBiT-CXCR2 in HEK293
T4 construct: purchased Promega (in-house HiBiT-GPCR construct library, NanoBRET)
T4 sequence (P25025 1-360): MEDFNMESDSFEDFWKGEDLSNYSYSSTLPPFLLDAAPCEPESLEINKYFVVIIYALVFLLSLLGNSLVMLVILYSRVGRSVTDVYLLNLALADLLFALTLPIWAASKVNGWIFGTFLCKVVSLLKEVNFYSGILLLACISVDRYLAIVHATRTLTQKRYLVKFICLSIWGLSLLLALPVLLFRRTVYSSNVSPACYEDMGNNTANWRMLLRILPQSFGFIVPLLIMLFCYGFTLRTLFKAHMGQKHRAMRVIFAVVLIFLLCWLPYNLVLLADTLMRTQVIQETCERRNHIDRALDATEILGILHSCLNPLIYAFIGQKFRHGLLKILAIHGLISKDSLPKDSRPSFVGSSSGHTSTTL
Protocol: as §1, §2

BRS3 = target: T5, BRS3 (Homo sapiens, UniProt P32247); assay: NanoBRET screen HiBiT-BRS3 in HEK293
T5 construct: purchased Promega (in-house HiBiT-GPCR construct library, NanoBRET)
T5 sequence (P32247 1-399): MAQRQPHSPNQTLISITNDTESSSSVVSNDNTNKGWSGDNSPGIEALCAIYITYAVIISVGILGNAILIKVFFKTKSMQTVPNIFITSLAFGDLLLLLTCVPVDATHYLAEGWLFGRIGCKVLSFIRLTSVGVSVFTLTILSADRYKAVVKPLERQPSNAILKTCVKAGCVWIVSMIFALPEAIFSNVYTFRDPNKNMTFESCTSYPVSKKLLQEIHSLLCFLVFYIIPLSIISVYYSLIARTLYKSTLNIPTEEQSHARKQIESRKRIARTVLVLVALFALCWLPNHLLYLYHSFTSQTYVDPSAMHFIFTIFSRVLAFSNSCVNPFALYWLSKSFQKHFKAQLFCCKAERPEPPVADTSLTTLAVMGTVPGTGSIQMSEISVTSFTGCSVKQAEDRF
Protocol: as §1, §2

CCR7 = target: T6, CCR7 (Homo sapiens, UniProt P32248); assay: NanoBRET screen HiBiT-CCR7 in HEK293
T6 construct: purchased Promega (in-house HiBiT-GPCR construct library, NanoBRET)
T6 sequence (P32248 25-378): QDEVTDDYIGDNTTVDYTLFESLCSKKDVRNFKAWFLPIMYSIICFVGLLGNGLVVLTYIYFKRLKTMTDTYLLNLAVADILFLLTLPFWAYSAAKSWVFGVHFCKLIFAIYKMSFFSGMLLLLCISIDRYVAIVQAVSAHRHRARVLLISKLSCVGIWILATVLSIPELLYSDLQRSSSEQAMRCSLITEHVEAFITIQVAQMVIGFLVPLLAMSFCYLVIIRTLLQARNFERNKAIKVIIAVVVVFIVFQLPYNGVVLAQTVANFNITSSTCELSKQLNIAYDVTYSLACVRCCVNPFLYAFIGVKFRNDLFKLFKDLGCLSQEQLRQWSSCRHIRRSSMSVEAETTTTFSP
Protocol: as §1, §2

[1] = tracer at 0.1μM, listed as amitriptyline-b-2-NB590
[2] = tracer at 1μM, listed as amitriptyline-b-2-NB590

T1 sequence (Q8WXD0 whole entry): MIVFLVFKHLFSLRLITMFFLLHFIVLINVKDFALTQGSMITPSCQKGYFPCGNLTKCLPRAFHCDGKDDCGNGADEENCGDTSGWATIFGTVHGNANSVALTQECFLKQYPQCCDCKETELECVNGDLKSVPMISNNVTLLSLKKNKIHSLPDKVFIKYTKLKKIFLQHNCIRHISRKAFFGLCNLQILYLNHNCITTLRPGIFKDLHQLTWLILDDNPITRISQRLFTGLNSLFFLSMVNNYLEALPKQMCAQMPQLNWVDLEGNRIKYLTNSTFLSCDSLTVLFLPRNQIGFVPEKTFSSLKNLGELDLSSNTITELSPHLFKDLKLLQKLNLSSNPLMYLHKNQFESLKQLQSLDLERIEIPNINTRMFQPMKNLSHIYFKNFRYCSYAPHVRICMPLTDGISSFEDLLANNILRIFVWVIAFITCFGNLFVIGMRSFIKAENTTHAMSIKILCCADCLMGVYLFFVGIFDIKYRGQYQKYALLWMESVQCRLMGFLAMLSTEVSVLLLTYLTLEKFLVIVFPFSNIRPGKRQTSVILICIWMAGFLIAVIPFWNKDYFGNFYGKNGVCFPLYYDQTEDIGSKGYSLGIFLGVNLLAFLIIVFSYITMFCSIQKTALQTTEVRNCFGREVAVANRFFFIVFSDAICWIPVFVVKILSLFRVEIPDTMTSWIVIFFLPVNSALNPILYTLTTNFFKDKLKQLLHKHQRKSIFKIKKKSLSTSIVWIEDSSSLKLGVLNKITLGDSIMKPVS
T3 sequence (P48146 whole entry): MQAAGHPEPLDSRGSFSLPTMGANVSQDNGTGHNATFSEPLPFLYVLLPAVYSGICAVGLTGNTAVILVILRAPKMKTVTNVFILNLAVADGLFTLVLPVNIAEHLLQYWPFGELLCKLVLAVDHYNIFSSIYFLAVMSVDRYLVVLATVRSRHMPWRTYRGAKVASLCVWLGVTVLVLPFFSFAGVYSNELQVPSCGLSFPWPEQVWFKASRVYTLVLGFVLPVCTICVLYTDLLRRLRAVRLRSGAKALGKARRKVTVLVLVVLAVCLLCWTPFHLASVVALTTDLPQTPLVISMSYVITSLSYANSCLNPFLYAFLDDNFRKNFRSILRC
T2 sequence (P25105 whole entry): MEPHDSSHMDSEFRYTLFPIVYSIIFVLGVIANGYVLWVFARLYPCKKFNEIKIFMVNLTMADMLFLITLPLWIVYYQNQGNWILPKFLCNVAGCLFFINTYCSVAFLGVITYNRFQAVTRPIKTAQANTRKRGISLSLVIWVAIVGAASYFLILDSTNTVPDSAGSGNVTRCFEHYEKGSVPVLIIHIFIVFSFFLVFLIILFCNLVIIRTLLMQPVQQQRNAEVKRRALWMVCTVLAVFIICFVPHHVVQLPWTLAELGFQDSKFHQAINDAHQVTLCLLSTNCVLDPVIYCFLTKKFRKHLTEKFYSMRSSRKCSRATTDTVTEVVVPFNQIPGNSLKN

SMILES	NanoBRET Fold Response (RXFP2; RXFP2, tracer 0.1μM)	NanoBRET Fold Response (RXFP2; RXFP2, tracer 1μM)	NanoBRET Fold Response (PTAFR; PTAFR, tracer 0.1μM)	NanoBRET Fold Response (PTAFR; PTAFR, tracer 1μM)	NanoBRET Fold Response (NPBWR2; NPBWR2, tracer 0.1μM)	NanoBRET Fold Response (NPBWR2; NPBWR2, tracer 1μM)	NanoBRET Fold Response (CXCR2; CXCR2, tracer 0.1μM)	NanoBRET Fold Response (CXCR2; CXCR2, tracer 1μM)	NanoBRET Fold Response (BRS3; BRS3, tracer 0.1μM)	NanoBRET Fold Response (BRS3; BRS3, tracer 1μM)	NanoBRET Fold Response (CCR7; CCR7, tracer 0.1μM)	NanoBRET Fold Response (CCR7; CCR7, tracer 1μM)	other results
COc1ccc2c(n1)c(CCNC(C)=O)cn2CCNC(=O)CCc1ccc2n1[B-](F)(F)[N+]1=C(c3ccc[nH]3)C=CC1=C2 [Azamelatonin-1-NB590]	–	–	–	–	–	–	–	–	–	–	–	–	NanoBRET Fold Response (RXFP2; 0.1μM tracer): 1.10; NanoBRET Fold Response (RXFP2; 1μM tracer): 1.34; NanoBRET Fold Response (PTAFR; 0.1μM tracer): 1.05; NanoBRET Fold Response (PTAFR; 1μM tracer): 1.05; NanoBRET Fold Response (NPBWR2; 0.1μM tracer): 0.91; NanoBRET Fold Response (NPBWR2; 1μM tracer): 0.82; NanoBRET Fold Response (CXCR2; 0.1μM tracer): 0.97; NanoBRET Fold Response (CXCR2; 1μM tracer): 0.98; NanoBRET Fold Response (BRS3; 0.1μM tracer): 0.95; NanoBRET Fold Response (BRS3; 1μM tracer): 0.95; NanoBRET Fold Response (CCR7; 0.1μM tracer): 0.88; NanoBRET Fold Response (CCR7; 1μM tracer): 0.96
CC(C)N(CC[C@H](c1ccccc1)c1cc(CCNC(=O)c2ccc(CNC(=O)CCc3ccc4n3[B-](F)(F)[N+]3=C(c5ccc[nH]5)C=CC3=C4)cc2)ccc1O)C(C)C [Tolterodine-BZ-NB590]	0.34	0.83	0.93	0.85	0.96	1.06	0.99	1.06	0.89	1.09	1.00	1.01	–
O=C(CCc1ccc2n1[B-](F)(F)[N+]1=C(c3ccc[nH]3)C=CC1=C2)NCCOCCOCCNC(=O)OCCOCCN1CCN(C2=Nc3ccccc3Sc3ccccc32)CC1 [Quetiapine-a-2-NB590]	1.31	1.01	1.05	1.13	0.97	1.09	1.03	0.97	0.96	0.98	1.03	1.01	–
Cc1cc2c(s1)Nc1ccccc1N=C2N1CCN(CCCNC(=O)CCOCCOCCOCCOCCNC(=O)CCc2ccc3n2[B-](F)(F)[N+]2=C(c4ccc[nH]4)C=CC2=C3)CC1 [Olanzapine-a-2-NB590]	0.27	0.46	1.00	0.99	0.98	1.02	0.97	1.08	1.01	1.05	1.01	1.05	–
CN(C)CCC=C1c2ccccc2CCc2ccc(C(=O)NCCNC(=O)CCOCCOCCOCCOCCNC(=O)CCc3ccc4n3[B-](F)(F)[N+]3=C(c5ccc[nH]5)C=CC3=C4)cc21 [Amitriptyline-b-2-NB590]	–	–	–	–	–	–	–	–	–	–	–	–	NanoBRET Fold Response (RXFP2; tracer at 0.1μM): 1.09; NanoBRET Fold Response (RXFP2; tracer at 1μM): 1.34; NanoBRET Fold Response (PTAFR; [1]): 0.92; NanoBRET Fold Response (PTAFR; [2]): 1.02; NanoBRET Fold Response (NPBWR2; tracer at 0.1μM): 1.01; NanoBRET Fold Response (NPBWR2; tracer at 1μM): 0.95; NanoBRET Fold Response (CXCR2; [1]): 0.97; NanoBRET Fold Response (CXCR2; [2]): 0.83; NanoBRET Fold Response (BRS3; tracer at 0.1μM): 0.92; NanoBRET Fold Response (BRS3; [2]): 1.07; NanoBRET Fold Response (CCR7; [1]): 1.00; NanoBRET Fold Response (CCR7; [2]): 1.00
O=C(CCOCCOCCOCCOCCNC(=O)CCc1ccc2n1[B-](F)(F)[N+]1=C(c3ccc[nH]3)C=CC1=C2)NCCCN1CCN(C2=Nc3cc(Cl)ccc3Nc3ccccc32)CC1 [Clozapine-a-2-NB590]	–	–	–	–	–	–	–	–	–	–	–	–	NanoBRET Fold Response (RXFP2; RXFP2, 0.1μM tracer): 1.23; NanoBRET Fold Response (RXFP2; RXFP2, 1μM tracer): 1.14; NanoBRET Fold Response (PTAFR; PTAFR, 0.1μM tracer): 1.01; NanoBRET Fold Response (PTAFR; PTAFR, 1μM tracer): 0.99; NanoBRET Fold Response (NPBWR2; NPBWR2, 0.1μM tracer): 1.04; NanoBRET Fold Response (NPBWR2; NPBWR2, 1μM tracer): 0.89; NanoBRET Fold Response (CXCR2; CXCR2, 0.1μM tracer): 1.02; NanoBRET Fold Response (CXCR2; CXCR2, 1μM tracer): 0.87; NanoBRET Fold Response (BRS3; BRS3, 0.1μM tracer): 1.09; NanoBRET Fold Response (BRS3; BRS3, 1μM tracer): 1.15; NanoBRET Fold Response (CCR7; CCR7, 0.1μM tracer): 1.01; NanoBRET Fold Response (CCR7; CCR7, 1μM tracer): 0.99
